# Experimental data published in ChEMBL document CHEMBL6120974, “Hydrazide-Based Class I Selective HDAC Inhibitors Completely Reverse Chemoresistance Synergistically in Platinum-Resistant Solid Cancer Cells” (J Med Chem, 2024).
# The source made the active and inactive calls. The calls are words filed in the database; no cut-off is given here.
# Key:
# Assay type in all cases: functional, cell-based
# Cal27CisR [1] = assay: Induction of apoptosis in cisplatin resistant human Cal27CisR cells assessed as decrease in Bcl-2 expression at 0.316 uM in presence of cisplatin at 16.5 uM preincubated with compound for 24 to 72 hrs prior to addition of cisplatin and measured after 24 hrs by Immunoblotting analysis; settings: time 48-96 hrs
# Cal27CisR [2] = assay: Induction of apoptosis in cisplatin resistant human Cal27CisR cells assessed as decrease in survivin expression at 0.316 uM incubated for 24 to 72 hrs by Immunoblotting analysis; settings: time 24-72 hrs
# Cal27CisR [3] = assay: Induction of apoptosis in cisplatin resistant human Cal27CisR cells assessed as decrease in p21 expression at 0.316 uM in presence of cisplatin at 16.5 uM preincubated with compound for 24 to 72 hrs prior to addition of cisplatin and measured after 24 hrs by Immunoblotting analysis; settings: time 48-96 hrs
# Cal27CisR [4] = assay: Induction of apoptosis in cisplatin resistant human Cal27CisR cells assessed as decrease in BIM expression at 0.316 uM in presence of cisplatin at 16.5 uM preincubated with compound for 24 to 72 hrs prior to addition of cisplatin and measured after 24 hrs by Immunoblotting analysis; settings: time 48-96 hrs
structure (smiles),measurement,setting,value
CCCNNC(=O)c1ccc(CN(CC(=O)NCc2ccccc2)C(=O)c2ccc(N(C)C)cc2)cc1,Activity,Cal27CisR [1],Active
same,Activity,Cal27CisR [2],inactive
same,Activity,Cal27CisR [3],Active
same,Activity,Cal27CisR [4],Active
